Measured values published in US9546156B2, “N-bicyclic aryl,N'-pyrazolyl urea, thiourea, guanidine cyanoguanidine compounds as TrkA kinase inhibitors” (Array BioPharma Inc., priority 2012, dated 2017).

What was measured:
Assay in all cases: Off-target kinase profiling (KinaseProfiler)
Type in all cases: biochemical
Settings in all cases: 10 μM, ATP near Km
[1] = molecular target: T1, PKCbetaI (Homo sapiens, UniProt P05771)
T1 construct: purchased Millipore, Inc. (KinaseProfiler service)
Method: (§1) A representative compound (Example 16) of the invention was tested for off-target kinase activity at a concentration of 10 μM by Millipore, Inc. in their KinaseProfiler™ service against all the kinases available in their full kinase panel. The compound was run in duplicate at a concentration of ATP near the Km for each individual kinase according to Millipore's specifications. The results are shown in Table B. Data are reported as percent of control (POC) and are the average of the two replicates.

[2] = molecular target: T2, GRK5 (Homo sapiens, UniProt P34947)
T2 construct: purchased Millipore, Inc. (KinaseProfiler service)
Method: as §1

[3] = molecular target: T3, LOK (Homo sapiens, UniProt O94804)
T3 construct: purchased Millipore, Inc. (KinaseProfiler service)
Method: as §1

[4] = molecular target: T4, JNK3 (Homo sapiens, UniProt P53779)
T4 construct: purchased Millipore, Inc. (KinaseProfiler service)
Method: as §1

[5] = molecular target: T5, PKCzeta (Homo sapiens, UniProt Q05513)
T5 construct: purchased Millipore, Inc. (KinaseProfiler service)
Method: as §1

[6] = molecular target: T6, NEK2 (Homo sapiens, UniProt P51955)
T6 construct: purchased Millipore, Inc. (KinaseProfiler service)
T6 sequence (P51955 whole entry): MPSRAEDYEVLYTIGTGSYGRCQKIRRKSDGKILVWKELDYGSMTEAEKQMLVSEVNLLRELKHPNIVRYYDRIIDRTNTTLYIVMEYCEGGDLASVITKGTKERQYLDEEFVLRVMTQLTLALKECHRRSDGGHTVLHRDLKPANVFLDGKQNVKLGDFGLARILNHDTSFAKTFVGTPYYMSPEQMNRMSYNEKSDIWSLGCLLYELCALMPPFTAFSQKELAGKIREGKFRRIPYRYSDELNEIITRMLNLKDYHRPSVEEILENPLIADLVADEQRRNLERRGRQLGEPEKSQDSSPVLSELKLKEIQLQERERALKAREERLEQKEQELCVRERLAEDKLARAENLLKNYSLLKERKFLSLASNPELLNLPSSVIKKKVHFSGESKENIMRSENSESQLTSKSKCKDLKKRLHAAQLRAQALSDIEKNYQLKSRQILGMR
Method: as §1

[7] = molecular target: T7, MSK1 (Homo sapiens, UniProt O75582)
T7 construct: purchased Millipore, Inc. (KinaseProfiler service)
Method: as §1

[8] = molecular target: T8, BTK (Homo sapiens, UniProt Q06187)
T8 construct: purchased Millipore, Inc. (KinaseProfiler service)
Method: as §1

[9] = molecular target: T9, PAK2 (Homo sapiens, UniProt Q13177)
T9 construct: purchased Millipore, Inc. (KinaseProfiler service)
Method: as §1

[10] = molecular target: T10, PDGFRalpha (Homo sapiens, UniProt P16234)
T10 construct: purchased Millipore, Inc. (KinaseProfiler service)
Method: as §1

[11] = molecular target: T11, Fms (Homo sapiens, UniProt P07333)
T11 construct: purchased Millipore, Inc. (KinaseProfiler service)
Method: as §1

[12] = molecular target: T12, Pim-1 (Homo sapiens, UniProt P11309)
T12 construct: purchased Millipore, Inc. (KinaseProfiler service)
Method: as §1

[13] = molecular target: T13, Plk1 (Homo sapiens, UniProt P53350)
T13 construct: purchased Millipore, Inc. (KinaseProfiler service)
Method: as §1

[14] = molecular target: T14, MKK7beta (Homo sapiens, UniProt O14733)
T14 construct: purchased Millipore, Inc. (KinaseProfiler service)
T14 sequence (O14733 whole entry): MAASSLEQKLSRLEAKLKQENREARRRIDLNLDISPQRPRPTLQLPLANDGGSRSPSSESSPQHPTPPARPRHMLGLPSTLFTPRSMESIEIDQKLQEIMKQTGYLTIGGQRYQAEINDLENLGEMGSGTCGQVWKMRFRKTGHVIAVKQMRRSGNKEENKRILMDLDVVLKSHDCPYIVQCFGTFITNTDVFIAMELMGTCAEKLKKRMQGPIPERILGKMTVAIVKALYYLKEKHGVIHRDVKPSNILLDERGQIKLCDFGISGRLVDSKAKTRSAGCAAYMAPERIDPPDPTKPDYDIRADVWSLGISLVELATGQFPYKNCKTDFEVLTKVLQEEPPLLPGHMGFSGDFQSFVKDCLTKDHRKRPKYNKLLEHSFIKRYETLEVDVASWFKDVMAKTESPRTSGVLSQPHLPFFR
Method: as §1

[15] = molecular target: T15, Mer (Homo sapiens, UniProt Q12866)
T15 construct: purchased Millipore, Inc. (KinaseProfiler service)
Method: as §1

[16] = molecular target: T16, MELK (Homo sapiens, UniProt Q14680)
T16 construct: purchased Millipore, Inc. (KinaseProfiler service)
Method: as §1

[17] = molecular target: T17, IR (Homo sapiens, UniProt P06213)
T17 construct: purchased Millipore, Inc. (KinaseProfiler service)
Method: as §1

[18] = molecular target: T18, ITK (Homo sapiens, UniProt Q08881)
T18 construct: purchased Millipore, Inc. (KinaseProfiler service)
Method: as §1

[19] = molecular target: T19, FGFR2 (Homo sapiens, UniProt P21802)
T19 construct: purchased Millipore, Inc. (KinaseProfiler service)
Method: as §1

[20] = molecular target: T20, Met (Homo sapiens, UniProt P08581)
T20 construct: purchased Millipore, Inc. (KinaseProfiler service)
Method: as §1

[21] = molecular target: T21, CDK1/cyclinB (Homo sapiens, UniProt P06493)
T21 construct: purchased Millipore, Inc. (KinaseProfiler service)
Method: as §1

[22] = molecular target: T22, PhKgamma2 (Homo sapiens, UniProt P15735)
T22 construct: purchased Millipore, Inc. (KinaseProfiler service)
Method: as §1

[23] = molecular target: T23, Tie2 (Homo sapiens, UniProt Q02763)
T23 construct: purchased Millipore, Inc. (KinaseProfiler service)
T23 sequence (Q02763 23-1124): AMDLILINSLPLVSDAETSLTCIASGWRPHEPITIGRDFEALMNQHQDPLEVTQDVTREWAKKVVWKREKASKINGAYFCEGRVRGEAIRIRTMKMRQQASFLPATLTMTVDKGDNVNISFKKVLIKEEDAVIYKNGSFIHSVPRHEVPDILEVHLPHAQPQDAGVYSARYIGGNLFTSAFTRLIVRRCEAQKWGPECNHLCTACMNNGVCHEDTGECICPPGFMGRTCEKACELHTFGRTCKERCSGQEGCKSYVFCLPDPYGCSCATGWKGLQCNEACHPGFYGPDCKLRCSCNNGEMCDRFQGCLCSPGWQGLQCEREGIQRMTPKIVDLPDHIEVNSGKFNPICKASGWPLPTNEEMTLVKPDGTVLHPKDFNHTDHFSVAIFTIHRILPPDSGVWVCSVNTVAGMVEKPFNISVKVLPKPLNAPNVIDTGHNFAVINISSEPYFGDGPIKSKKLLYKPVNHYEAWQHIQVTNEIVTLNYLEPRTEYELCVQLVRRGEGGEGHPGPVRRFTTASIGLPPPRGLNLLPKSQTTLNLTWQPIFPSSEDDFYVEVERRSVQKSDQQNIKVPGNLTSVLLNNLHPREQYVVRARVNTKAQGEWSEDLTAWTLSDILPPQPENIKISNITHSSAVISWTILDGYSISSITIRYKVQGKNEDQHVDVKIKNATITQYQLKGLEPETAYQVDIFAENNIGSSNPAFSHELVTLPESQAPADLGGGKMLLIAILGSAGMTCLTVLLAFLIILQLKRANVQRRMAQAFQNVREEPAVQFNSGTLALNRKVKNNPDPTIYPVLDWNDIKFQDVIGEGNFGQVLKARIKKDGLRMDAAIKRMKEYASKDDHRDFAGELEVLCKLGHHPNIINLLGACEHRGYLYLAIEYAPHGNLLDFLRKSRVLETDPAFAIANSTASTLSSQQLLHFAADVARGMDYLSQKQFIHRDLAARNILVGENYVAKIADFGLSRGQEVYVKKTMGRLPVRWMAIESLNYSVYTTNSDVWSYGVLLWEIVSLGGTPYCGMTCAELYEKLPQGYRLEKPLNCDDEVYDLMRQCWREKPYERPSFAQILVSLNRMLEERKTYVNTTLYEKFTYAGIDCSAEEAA
Method: as §1

[24] = molecular target: T24, CK1delta (Homo sapiens, UniProt P48730)
T24 construct: purchased Millipore, Inc. (KinaseProfiler service)
Method: as §1

[25] = molecular target: T25, NEK3 (Homo sapiens, UniProt P51956)
T25 construct: purchased Millipore, Inc. (KinaseProfiler service)
Method: as §1

[26] = molecular target: T26, TAO2 (Homo sapiens, UniProt Q9UL54)
T26 construct: purchased Millipore, Inc. (KinaseProfiler service)
T26 sequence (Q9UL54 whole entry): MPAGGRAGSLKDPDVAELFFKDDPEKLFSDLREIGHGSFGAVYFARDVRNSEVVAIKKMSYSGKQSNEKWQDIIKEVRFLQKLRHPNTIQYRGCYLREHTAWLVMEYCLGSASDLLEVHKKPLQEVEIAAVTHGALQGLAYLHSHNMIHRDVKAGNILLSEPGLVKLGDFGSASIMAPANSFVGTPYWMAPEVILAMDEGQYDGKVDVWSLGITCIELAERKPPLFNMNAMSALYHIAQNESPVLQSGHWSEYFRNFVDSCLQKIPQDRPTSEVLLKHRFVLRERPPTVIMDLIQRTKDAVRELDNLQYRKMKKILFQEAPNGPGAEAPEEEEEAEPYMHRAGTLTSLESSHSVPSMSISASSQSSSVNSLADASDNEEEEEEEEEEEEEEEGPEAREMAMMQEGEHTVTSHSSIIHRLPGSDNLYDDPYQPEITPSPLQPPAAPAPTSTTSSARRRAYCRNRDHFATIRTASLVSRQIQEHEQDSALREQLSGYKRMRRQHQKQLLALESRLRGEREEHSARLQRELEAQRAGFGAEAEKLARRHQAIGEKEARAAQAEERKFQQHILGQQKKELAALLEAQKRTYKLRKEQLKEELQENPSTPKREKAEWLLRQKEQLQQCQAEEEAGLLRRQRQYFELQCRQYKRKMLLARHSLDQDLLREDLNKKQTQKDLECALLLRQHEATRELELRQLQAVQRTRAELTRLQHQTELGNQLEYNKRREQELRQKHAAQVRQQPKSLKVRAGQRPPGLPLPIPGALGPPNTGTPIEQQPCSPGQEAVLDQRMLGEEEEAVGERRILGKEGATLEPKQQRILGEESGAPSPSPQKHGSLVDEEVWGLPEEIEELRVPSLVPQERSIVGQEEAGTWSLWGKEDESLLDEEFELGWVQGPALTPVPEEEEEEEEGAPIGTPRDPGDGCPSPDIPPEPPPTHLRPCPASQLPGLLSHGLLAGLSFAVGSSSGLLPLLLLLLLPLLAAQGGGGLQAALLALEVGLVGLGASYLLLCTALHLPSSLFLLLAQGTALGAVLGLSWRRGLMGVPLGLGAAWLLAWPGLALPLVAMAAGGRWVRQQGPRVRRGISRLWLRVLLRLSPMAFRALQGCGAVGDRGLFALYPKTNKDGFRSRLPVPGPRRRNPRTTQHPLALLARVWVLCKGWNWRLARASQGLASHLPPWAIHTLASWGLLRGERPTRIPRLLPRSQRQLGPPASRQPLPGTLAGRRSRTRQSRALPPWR
Method: as §1

[27] = molecular target: T27, CHK1 (Homo sapiens, UniProt O14757)
T27 construct: purchased Millipore, Inc. (KinaseProfiler service)
Method: as §1

[28] = molecular target: T28, c-RAF (Homo sapiens, UniProt P04049, Y340D/Y341D)
T28 construct: purchased Millipore, Inc. (KinaseProfiler service)
Method: as §1

[29] = molecular target: T29, VRK2 (Homo sapiens, UniProt Q86Y07)
T29 construct: purchased Millipore, Inc. (KinaseProfiler service)
Method: as §1

[30] = molecular target: T30, Fer (Homo sapiens, UniProt P16591)
T30 construct: purchased Millipore, Inc. (KinaseProfiler service)
Method: as §1

[31] = molecular target: T31, Flt3 (Homo sapiens, UniProt P36888)
T31 construct: purchased Millipore, Inc. (KinaseProfiler service)
Method: as §1

[32] = molecular target: T32, Fes (Homo sapiens, UniProt P07332)
T32 construct: purchased Millipore, Inc. (KinaseProfiler service)
Method: as §1

[33] = molecular target: T33, PRK2 (Homo sapiens, UniProt Q16513)
T33 construct: purchased Millipore, Inc. (KinaseProfiler service)
T33 sequence (Q16513 whole entry): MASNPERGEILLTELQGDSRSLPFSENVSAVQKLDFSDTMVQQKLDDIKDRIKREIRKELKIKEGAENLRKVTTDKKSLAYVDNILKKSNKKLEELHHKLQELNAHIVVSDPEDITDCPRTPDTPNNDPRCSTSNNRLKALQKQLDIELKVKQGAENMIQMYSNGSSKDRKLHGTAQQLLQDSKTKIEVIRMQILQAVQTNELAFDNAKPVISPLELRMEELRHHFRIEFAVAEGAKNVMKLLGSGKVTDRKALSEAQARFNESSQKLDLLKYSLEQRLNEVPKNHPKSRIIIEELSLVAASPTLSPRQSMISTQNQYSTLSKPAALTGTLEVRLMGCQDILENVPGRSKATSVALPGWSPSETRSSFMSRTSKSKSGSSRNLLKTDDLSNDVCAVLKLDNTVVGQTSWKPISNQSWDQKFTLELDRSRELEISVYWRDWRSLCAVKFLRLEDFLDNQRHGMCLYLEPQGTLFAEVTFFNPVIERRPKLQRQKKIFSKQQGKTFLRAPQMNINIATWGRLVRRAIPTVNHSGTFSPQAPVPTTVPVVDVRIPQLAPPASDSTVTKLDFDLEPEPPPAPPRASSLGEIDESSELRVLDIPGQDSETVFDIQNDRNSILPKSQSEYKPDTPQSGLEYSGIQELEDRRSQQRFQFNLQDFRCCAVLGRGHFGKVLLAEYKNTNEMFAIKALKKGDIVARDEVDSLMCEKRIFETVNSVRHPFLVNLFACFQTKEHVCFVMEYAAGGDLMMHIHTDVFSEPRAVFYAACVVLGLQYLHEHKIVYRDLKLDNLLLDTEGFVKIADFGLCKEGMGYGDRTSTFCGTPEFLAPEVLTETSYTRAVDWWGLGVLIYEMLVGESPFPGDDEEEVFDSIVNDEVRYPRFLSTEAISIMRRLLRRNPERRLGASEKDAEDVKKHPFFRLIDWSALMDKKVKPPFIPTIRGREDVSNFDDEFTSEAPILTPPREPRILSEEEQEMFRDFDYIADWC
Method: as §1

[34] = molecular target: T34, MST3 (Homo sapiens, UniProt Q9Y6E0)
T34 construct: purchased Millipore, Inc. (KinaseProfiler service)
Method: as §1

[35] = molecular target: T35, NLK (Homo sapiens, UniProt Q9UBE8)
T35 construct: purchased Millipore, Inc. (KinaseProfiler service)
Method: as §1

[36] = molecular target: T36, MAPKAP-K5 (Homo sapiens, UniProt Q8IW41)
T36 construct: purchased Millipore, Inc. (KinaseProfiler service)
T36 sequence (Q8IW41 whole entry): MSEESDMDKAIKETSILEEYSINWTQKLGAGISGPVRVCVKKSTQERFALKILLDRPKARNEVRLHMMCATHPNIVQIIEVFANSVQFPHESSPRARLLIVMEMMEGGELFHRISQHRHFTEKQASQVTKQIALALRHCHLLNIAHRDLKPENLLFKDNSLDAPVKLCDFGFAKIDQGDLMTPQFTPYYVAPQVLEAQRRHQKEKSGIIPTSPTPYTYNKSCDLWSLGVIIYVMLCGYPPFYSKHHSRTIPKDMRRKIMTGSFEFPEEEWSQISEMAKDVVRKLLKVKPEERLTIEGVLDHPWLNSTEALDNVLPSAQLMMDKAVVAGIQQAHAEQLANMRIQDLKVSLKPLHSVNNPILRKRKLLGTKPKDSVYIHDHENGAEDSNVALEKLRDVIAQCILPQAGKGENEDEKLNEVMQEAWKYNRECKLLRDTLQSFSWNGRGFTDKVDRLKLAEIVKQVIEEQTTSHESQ
Method: as §1

[37] = molecular target: T37, TAO3 (Homo sapiens, UniProt Q9H2K8)
T37 construct: purchased Millipore, Inc. (KinaseProfiler service)
Method: as §1

[38] = molecular target: T38, TBK1 (Homo sapiens, UniProt Q9UHD2)
T38 construct: purchased Millipore, Inc. (KinaseProfiler service)
Method: as §1

[39] = molecular target: T39, JNK1alpha1 (Homo sapiens, UniProt P45983)
T39 construct: purchased Millipore, Inc. (KinaseProfiler service)
Method: as §1

[40] = molecular target: T40, DAPK2 (Homo sapiens, UniProt Q9UIK4)
T40 construct: purchased Millipore, Inc. (KinaseProfiler service)
T40 sequence (Q9UIK4 whole entry): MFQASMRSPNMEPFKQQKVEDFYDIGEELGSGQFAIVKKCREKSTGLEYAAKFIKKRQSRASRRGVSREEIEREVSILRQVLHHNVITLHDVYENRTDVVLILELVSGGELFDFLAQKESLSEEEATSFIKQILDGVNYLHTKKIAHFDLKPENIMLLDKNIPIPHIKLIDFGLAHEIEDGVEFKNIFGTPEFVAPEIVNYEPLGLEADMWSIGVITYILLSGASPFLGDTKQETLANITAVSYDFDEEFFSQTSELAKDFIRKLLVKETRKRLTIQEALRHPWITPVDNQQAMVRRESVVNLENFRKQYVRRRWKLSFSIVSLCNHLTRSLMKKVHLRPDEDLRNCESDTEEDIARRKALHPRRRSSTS
Method: as §1

[41] = molecular target: T41, MKNK2 (Homo sapiens, UniProt Q9HBH9)
T41 construct: purchased Millipore, Inc. (KinaseProfiler service)
Method: as §1

Which results are given for `COCc1ccc2cccc(NC(=O)Nc3c(C)c(-c4cnn(C)c4)nn3-c3ccccc3)c2c1` [Example 16, 1-(1′,4-dimethyl-1-phenyl-1H,1′H-[3,4′-bipyrazol]-5-yl)-3-(7-(methoxymethyl)naphthalen-1-yl)urea]?
Avg POC [1]: 97 POC; Avg POC [2]: 108 POC; Avg POC [3]: 120.5 POC; Avg POC [4]: 132 POC; Avg POC [5]: 123 POC; Avg POC [6]: 105.5 POC; Avg POC [7]: 132 POC; Avg POC [8]: 121.5 POC; Avg POC [9]: 121 POC; Avg POC [10]: 132 POC; Avg POC [11]: 125.5 POC; Avg POC [12]: 124.5 POC; Avg POC [13]: 95 POC; Avg POC [14]: 115.5 POC; Avg POC [15]: 116 POC; Avg POC [16]: 135.5 POC; Avg POC [17]: 92 POC; Avg POC [18]: 131 POC; Avg POC [19]: 110 POC; Avg POC [20]: 130 POC; Avg POC [21]: 117.5 POC; Avg POC [22]: 118 POC; Avg POC [23]: 148.5 POC; Avg POC [24]: 127.5 POC; Avg POC [25]: 122 POC; Avg POC [26]: 119.5 POC; Avg POC [27]: 139.5 POC; Avg POC [28]: 114 POC; Avg POC [29]: 110 POC; Avg POC [30]: 122 POC; Avg POC [31]: 121.5 POC; Avg POC [32]: 117.5 POC; Avg POC [33]: 142.5 POC; Avg POC [34]: 135 POC; Avg POC [35]: 113.5 POC; Avg POC [36]: 122.5 POC; Avg POC [37]: 89.5 POC; Avg POC [38]: 121.5 POC; Avg POC [39]: 111.5 POC; Avg POC [40]: 105.5 POC; Avg POC [41]: 118.5 POC
